Results published in patent US20130303509A1, “NAMPT INHIBITORS” (AbbVie Inc., priority 2012, published 2013).
pIC50: −log10 of the molar value.

test system: PC3 cells; assay: NAMPT Cell Proliferation Assay; format: cell-based; details: Homo sapiens, PC-3, 120 h, 5 days incubation, cell viability by Cell Titer Glo
Procedure, shortened: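 Five-day CellTiter-Glo viability readout in PC3 cells grown in RPMI/10% heat-inactivated FBS. Compounds added after overnight attachment as a 10-fold dilution series, […]. Percent inhibition fitted to sigmoidal dose-response to derive IC50.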

| Compound | pIC50 |
| --- | --- |
| CC(C)CCN1CCC(c2ccc(NC(=O)C3CN(c4cccnc4)C3)cc2)CC1 [Example 93, N-{4-[1-(3-methylbutyl)piperidin-4-yl]phenyl}-1-(pyridin-3-yl)azetidine-3-carboxamide] | 7.23 |
| O=C(Nc1ccc(OC2CCN(C(=O)CC3CCOCC3)CC2)cc1)C1CN(c2cnccc2F)C1 [Example 6, 1-(4-fluoropyridin-3-yl)-N-(4-{[1-(tetrahydro-2H-pyran-4-ylacetyl)piperidin-4-yl]oxy}phenyl)azetidine-3-carboxamide] | 7.17 |
| O=C(Nc1ccc(S(=O)(=O)C2CCN(C(=O)c3cc(F)ccc3F)CC2)cc1)C1CN(c2cccnn2)C1 [Example 576, N-(4-{[1-(2,5-difluorobenzoyl)piperidin-4-yl]sulfonyl}phenyl)-1-(pyridazin-3-yl)azetidine-3-carboxamide] | 7.07 |
| O=C(Nc1ccc(C2CCN(C(=O)c3ccc(C(F)(F)F)cc3)CC2)cc1)[C@H]1CCN(c2cccnn2)C1 [Example 699, (3S)-1-(pyridazin-3-yl)-N-(4-{1-[4-(trifluoromethyl)benzoyl]piperidin-4-yl}phenyl)pyrrolidine-3-carboxamide] | 7.19 |
| O=C(Nc1ccc(O[C@@H]2CCN(C(=O)Cc3ccc(OC(F)(F)F)cc3)C2)cc1)C1CN(c2cccnn2)C1 [Example 488, 1-(pyridazin-3-yl)-N-(4-{[(3R)-1-{[4-(trifluoromethoxy)phenyl]acetyl}pyrrolidin-3-yl]oxy}phenyl)azetidine-3-carboxamide] | 7.19 |
| O=C(Nc1ccc(S(=O)(=O)C2CCN(C(=O)c3ccc(F)cc3)CC2)cc1)C1CN(c2ccnnc2)C1 [Example 616, N-(4-{[1-(4-fluorobenzoyl)piperidin-4-yl]sulfonyl}phenyl)-1-(pyridazin-4-yl)azetidine-3-carboxamide] | 5.14 |
| O=C(Nc1ccc(OC2CCN(C(=O)c3cccc(Cl)c3)CC2)cc1)C1CN(c2ccnnc2)C1 [Example 295, N-(4-{[1-(3-chlorobenzoyl)piperidin-4-yl]oxy}phenyl)-1-(pyridazin-4-yl)azetidine-3-carboxamide] | 7.15 |
| O=C(Nc1ccc(O[C@H]2CCN(C(=O)c3ccccc3)C2)cc1)[C@H]1CCN(c2cccnn2)C1 [Example 824, (3S)—N-(4-{[(3S)-1-benzoylpyrrolidin-3-yl]oxy}phenyl)-1-(pyridazin-3-yl)pyrrolidine-3-carboxamide] | 7.15 |
| CC[C@H](C)C(=O)N1CCC(Oc2ccc(NC(=O)C3CN(c4cccnn4)C3)cc2)CC1 [Example 212, N-[4-({1-[(2S)-2-methylbutanoyl]piperidin-4-yl}oxy)phenyl]-1-(pyridazin-3-yl)azetidine-3-carboxamide] | 8.24 |
| O=C(Nc1ccc(C2(F)CCN(C(=O)c3ccccc3)CC2)cc1)C1CN(c2cccnn2)C1 [Example 863, N-[4-(1-benzoyl-4-fluoropiperidin-4-yl)phenyl]-1-(pyridazin-3-yl)azetidine-3-carboxamide] | 8.25 |
| CCOCC(=O)N1CCC(c2ccc(NC(=O)C3CN(c4cccnn4)C3)cc2)CC1 [Example 432, N-{4-[1-(ethoxyacetyl)piperidin-4-yl]phenyl}-1-(pyridazin-3-yl)azetidine-3-carboxamide] | 8.10 |
| O=C(Nc1ccc(C2CCN(C(=O)Cc3cc(F)cc(F)c3)CC2)cc1)C1CN(c2ccnnc2)C1 [Example 532, N-(4-{1-[(3,5-difluorophenyl)acetyl]piperidin-4-yl}phenyl)-1-(pyridazin-4-yl)azetidine-3-carboxamide] | 8.14 |
| O=C(Nc1ccc(OC2CN(C(=O)C3CCC3)C2)cc1)C1CN(c2ccnnc2)C1 [Example 261, N-(4-{[1-(cyclobutylcarbonyl)azetidin-3-yl]oxy}phenyl)-1-(pyridazin-4-yl)azetidine-3-carboxamide] | 7.15 |
| O=C(Nc1ccc(C2CCN(C(=O)C3CCOC3)CC2)cc1)C1CN(c2cccnn2)C1 (stereo not shown) [Example 414, 1-(pyridazin-3-yl)-N-{4-[1-(tetrahydrofuran-3-ylcarbonyl)piperidin-4-yl]phenyl}azetidine-3-carboxamide] | 8.13 |
| O=C(Nc1ccc(C2CCN(C(=O)c3ccc(Cl)cc3Cl)CC2)cc1)C1CN(c2cccnn2)C1 [Example 362, N-{4-[1-(2,4-dichlorobenzoyl)piperidin-4-yl]phenyl}-1-(pyridazin-3-yl)azetidine-3-carboxamide] | 8.58 |
| O=C(Nc1ccc(C2CCN(C(=O)CCCc3cccs3)CC2)cc1)[C@H]1CCN(c2cccnn2)C1 [Example 642, (3S)-1-(pyridazin-3-yl)-N-(4-{1-[4-(thiophen-2-yl)butanoyl]piperidin-4-yl}phenyl)pyrrolidine-3-carboxamide] | 8.14 |
| O=C(Nc1ccc(C2CCN(C(=O)c3cccc4ccccc34)CC2)cc1)[C@H]1CCN(c2cccnn2)C1 [Example 639, (3S)-N-{4-[1-(naphthalen-1-ylcarbonyl)piperidin-4-yl]phenyl}-1-(pyridazin-3-yl)pyrrolidine-3-carboxamide] | 8.09 |

| Compound | pIC50 |
| --- | --- |
| CCOCCC(=O)N1CCC(c2ccc(NC(=O)C3CN(c4cccnc4)C3)cc2)CC1 [Example 115, N-{4-[1-(3-ethoxypropanoyl)piperidin-4-yl]phenyl}-1-(pyridin-3-yl)azetidine-3-carboxamide] | 9.40 |
| O=C(Nc1ccc(O[C@@H]2CCN(C(=O)C3CCOC3)C2)cc1)C1CN(c2cccnn2)C1 (stereo partly drawn) [Example 503, 1-(pyridazin-3-yl)-N-(4-{[(3R)-1-(tetrahydrofuran-3-ylcarbonyl)pyrrolidin-3-yl]oxy}phenyl)azetidine-3-carboxamide] | 7.24 |
| CC(C)C(=O)N1CCC(c2ccc(NC(=O)C3CN(c4cccnn4)C3)c(F)c2)CC1 [Example 858, N-{2-fluoro-4-[1-(2-methylpropanoyl)piperidin-4-yl]phenyl}-1-(pyridazin-3-yl)azetidine-3-carboxamide] | 8.36 |
| N#Cc1cccc(C(=O)N2CCC(c3ccc(NC(=O)C4CN(c5cccnn5)C4)cc3)CC2)c1 [Example 352, N-{4-[1-(3-cyanobenzoyl)piperidin-4-yl]phenyl}-1-(pyridazin-3-yl)azetidine-3-carboxamide] | 8.05 |
| COCC(=O)N1CCC(c2ccc(NC(=O)C3CN(c4ccnnc4)C3)cc2)CC1 [Example 548, N-{4-[1-(methoxyacetyl)piperidin-4-yl]phenyl}-1-(pyridazin-4-yl)azetidine-3-carboxamide] | 7.19 |
| Cc1ncccc1N1CC(C(=O)Nc2ccc(C3CCN(C(=O)CC(F)(F)F)CC3)cc2)C1 [Example 182, 1-(2-methylpyridin-3-yl)-N-{4-[1-(3,3,3-trifluoropropanoyl)piperidin-4-yl]phenyl}azetidine-3-carboxamide] | 7.06 |
| O=C(Nc1ccc(C2CCN(C(=O)c3cccc(Cl)c3)CC2)cc1)C1CN(c2ccnnc2)C1 [Example 544, N-{4-[1-(3-chlorobenzoyl)piperidin-4-yl]phenyl}-1-(pyridazin-4-yl)azetidine-3-carboxamide] | 8.14 |
| CC(C)(O)Cn1cc(-c2ccc(NC(=O)[C@H]3CCN(c4cccnn4)C3)cc2)cn1 [Example 757, (3S)-N-{4-[1-(2-hydroxy-2-methylpropyl)-1H-pyrazol-4-yl]phenyl}-1-(pyridazin-3-yl)pyrrolidine-3-carboxamide] | 7.17 |
| CC(C)(C)CC(=O)N1CCC(Oc2ccc(NC(=O)C3CN(c4ccnnc4)C3)cc2)CC1 [Example 260, N-(4-{[1-(3,3-dimethylbutanoyl)piperidin-4-yl]oxy}phenyl)-1-(pyridazin-4-yl)azetidine-3-carboxamide] | 7.13 |
| O=C(Nc1ccc(OC2CCN(C(=O)c3ccc(Cl)cc3)CC2)cc1)C1CN(c2ccnnc2)C1 [Example 297, N-(4-{[1-(4-chlorobenzoyl)piperidin-4-yl]oxy}phenyl)-1-(pyridazin-4-yl)azetidine-3-carboxamide] | 7.03 |
| CC(C)(C)C(=O)N1CCC(c2ccc(NC(=O)C3CN(c4ccnnc4)C3)c(F)c2)CC1 [Example 870, N-{4-[1-(2,2-dimethylpropanoyl)piperidin-4-yl]-2-fluorophenyl}-1-(pyridazin-4-yl)azetidine-3-carboxamide] | 8.49 |
| O=C(Nc1ccc(O[C@@H]2CCN(C(=O)C3CCCO3)C2)cc1)C1CN(c2ccnnc2)C1 (stereo partly drawn) [Example 457, 1-(pyridazin-4-yl)-N-(4-{[(3R)-1-(tetrahydrofuran-2-ylcarbonyl)pyrrolidin-3-yl]oxy}phenyl)azetidine-3-carboxamide] | 6.85 |
| O=C(Nc1ccc(O[C@@H]2CCN(C(=O)c3cccs3)C2)cc1)C1CN(c2ccnnc2)C1 [Example 469, 1-(pyridazin-4-yl)-N-(4-{[(3R)-1-(thiophen-2-ylcarbonyl)pyrrolidin-3-yl]oxy}phenyl)azetidine-3-carboxamide] | 8.06 |
| O=C(Nc1ccc(OC2CCN(C(=O)Cc3ccc(F)cc3)CC2)cc1)C1CN(c2cccnn2)C1 [Example 232, N-[4-({1-[(4-fluorophenyl)acetyl]piperidin-4-yl}oxy)phenyl]-1-(pyridazin-3-yl)azetidine-3-carboxamide] | 8.06 |
| COc1ccncc1N1CC(C(=O)Nc2ccc(C3CCN(C(=O)C(C)(C)O)CC3)cc2)C1 [Example 96, N-{4-[1-(2-hydroxy-2-methylpropanoyl)piperidin-4-yl]phenyl}-1-(4-methoxypyridin-3-yl)azetidine-3-carboxamide] | 5.12 |
| O=C(Nc1ccc(OC2CCN(C(=O)c3ccc(OC(F)(F)F)cc3)CC2)cc1)C1CN(c2ccnnc2)C1 [Example 290, 1-(pyridazin-4-yl)-N-[4-({1-[4-(trifluoromethoxy)benzoyl]piperidin-4-yl}oxy)phenyl]azetidine-3-carboxamide] | 7.09 |
| O=C(Nc1ccc(O[C@@H]2CCN(C(=O)C3CCC(F)(F)CC3)C2)cc1)C1CN(c2cccnn2)C1 [Example 524, N-[4-({(3R)-1-[(4,4-difluorocyclohexyl)carbonyl]pyrrolidin-3-yl}oxy)phenyl]-1-(pyridazin-3-yl)azetidine-3-carboxamide] | 8.24 |
